Data from patent publication US11813277B2, “Methods and agents for modulating inflammation” (The Regents of the University of California, priority 2018, dated 2023).

Assays:
[1] = system: Arginase; assay: Arginase activity in BMDMs; assay type: cell-based, mouse; conditions: 200 μM etomoxir, IL-4, 24 hr
Description: On Day 6 of differentiation, BMDMs were seeded at 1×10^6 cells/well in 6-well plates. 24 hr later, BMDMs were mock-treated or co-treated with 20 ng/mL IL-4±200 μM etomoxir in DMEM supplemented with 5% FBS, 2 mM L-glutamine, 100 units/mL, 100 μg/mL penicillin/streptomycin, 500 μM of sodium pyruvate and 5% v/v conditioned media containing macrophage colony stimulating factor (M-CSF) for 24 hr. Prior to sample collections, cells were washed with 600 μL of ice-cold PBS twice and scraped into 1.5 mL centrifuge tubes. Cell lysate was prepared according to Arginase Activity Assay Kit (Sigma MAK112) instructions and the 20 μL of lysate was used to measure arginase activity. Arginase activity was adjusted to total cell number.

[2] = system: permeabilized HepG2 or A549 cells; assay: ADP- vs FCCP-stimulated respiration in permeabilized cells, etomoxir added directly; assay type: cell-based; conditions: high concentrations of etomoxir
[3] = system: LCFA oxidation in BMDMs; assay: 9,10-3H-palmitate oxidation (3H2O release) in BMDMs; assay type: cell-based, mouse; conditions: 3 μM etomoxir
Description: BMDMs at day 6 of differentiation were seeded at 3×10^5 cells/well in 12 well plates in BMDM media. The next day, cells were treated in DMEM containing 25 mM glucose supplemented with 5% FBS, 2 mM L-Glutamax, 100 units/mL, 100 μg/mL penicillin/streptomycin, 1 mM of sodium pyruvate, 1 mM carnitine, and 5% v/v conditioned media containing macrophage colony stimulating factor (M-CSF) under one of 5 conditions: control, 20 ng/mL of IL-4±3 μM or 200 μM of etomoxir, or 200 nM rotenone, or 200 nM antimycin A for 24 hr. Fatty acid oxidation was measured 24 hours later as previously described (Rognstad, R. (1991) Estimation of peroxisomal and mitochondrial fatty acid oxidation in rat hepatocytes using tritiated substrates. Biochem J 279:147-150, 1991; Cha, B. S., Ciaraldi, T. P., Park, K. S., Carter, L., Mudaliar, S. R., and Henry R R. (2005) Impaired fatty acid metabolism in type 2 diabetic skeletal muscle cells is reversed by PPARgamma agonists. Am J Physiol Endocrinol Metab. 289, E151-9) following a fluid change to DMEM with components as described above except 10 mM glucose and 0.2 μCi (final concentration of 5 μM) BSA-conjugated [9,10-3H]palmitic acid. No additional IL-4 was added at the time of this fluid change, but etomoxir, rotenone and antimycin A were added, and the plates were placed in a […] incubator at 37° C. for 3 hr. After incubation, a 100 μL aliquot of the culture medium was passed over an ion-exchange resin, and the column was washed twice with 0.75 ml of water. Free fatty acids were retained by the resin, whereas the tritium hydrolyzed from radiolabeled palmitate catabolism was released as labeled water, which passes freely through the resin, and is subsequently counted for radioactivity. All data are corrected for protein content in each well. There were 3 technical replicates for each condition, and 4 biological replicates arising from 4 separate animals.

[4] = system: respiratory complex I; assay: Respiration in double-permeabilized HepG2 cells; assay type: biochemical; conditions: 100 μM etomoxir
Description: When permeabilized cells were treated with alamethicin to form pores of 3-6 kDa in the mitochondrial inner membrane (“double-permeabilized” cells) and complex I-mediated respiration was directly assessed (FIG. 6F), 10 μg/mL alamethicin was added at 37° C. 15 minutes prior to measurements (Divakaruni, A. S., Andreyev, A. Y., Rogers, G. W., and Murphy, A. N. (2017a) In situ measurements of mitochondrial matrix enzyme activities using plasma and mitochondrial membrane permeabilization agents. Anal. Biochem. 17, 30385-8). Double-permeabilized cells were offered 10 μM cytochrome c in the experimental medium and either 10 mM NADH or 10 mM succinate with 2 μM rotenone to drive respiration.

[5] = system: phosphate (Pi) transporter; assay: Phosphate transporter assay (mitochondrial swelling); assay type: biochemical, rat; conditions: 250 μM etomoxir, 100 μM NEM, 10 μM mersalyl
Description: Phosphate transport was measured by monitoring swelling of de-energized mitochondria in isotonic potassium phosphate medium based upon principles described by Coty, W. A. and Pedersen, P. L. (1975) Phosphate transport in rat liver mitochondria. Kinetics, inhibitor sensitivity, energy requirements, and labeled components. Mol Cell Biochem. 9, 109-24. As the phosphate carrier acts as electroneutral symporter with protons, the process is self-restricting due to generation of an opposing pH gradient. […] In the presence of nigericin, the proton fluxes cycle resulting in electro- and pH-neutral transport of potassium phosphate down its concentration gradient into the mitochondrial matrix, resulting in osmotic accumulation of water. Under these conditions, transport is limited by the activity of phosphate carrier, and can be recorded as mitochondrial swelling (a decrease in light scattering).
The measurements were performed in an LS-50B spectrofluorometer (Perkin-Elmer) at 540 nm. Assay medium contained 125 mM potassium phosphate, pH 7.2, 0.5 mM EGTA, and 2 μM rotenone. Mouse liver mitochondria (0.5 mg/ml) were treated with 250 μM etomoxir, 100 μM N-ethylmaleimide (NEM) (Klingenberg, M., Durand, R., and Guerin, B. (1974) Analysis of the reactivity of SH-reagents with the mitochondrial phosphate carrier. Eur J Biochem, 42, 135-150) or 10 μM mersalyl (Paradies, G. and Ruggiero, F. M. (1991) Effect of aging on the activity of the phosphate carrier and on the lipid composition in rat liver mitochondria. Arch Biochem Biophys. 284, 332-337) and the reaction was started with 5 μM nigericin. Typical traces from 3 experiments are shown. To establish the maximally swollen state of mitochondria, 80 μg/ml alamethicin was used.

CCOC(=O)[C@@]1(CCCCCCOc2ccc(Cl)cc2)CO1 [etomoxir]
Arginase activity [1]: unaffected
respiration driven by ADP versus FCCP [2]: greater inhibitory effect on respiration driven by ADP versus FCCP
3H2O release from tritiated palmitate [3]: effectively suppress
oxidation of NADH [4]: inhibit oxidation of NADH
Pi transporter activity (rate of swelling) [5]: does not inhibit
Pi transporter activity (rate of swelling) ([5]; listed as Etomoxir): does not affect the rate of swelling
